Reference: patent publication US20240366536A1, “MODULATORS OF A POTASSIUM CHANNEL AND OF TRPV1 CHANNEL AND USES THEREOF” (Bsense Bio Therapeutics Ltd., priority 2022, published 2024)
Values after ≈ are worked out from the molar mass of the structure shown. Where two headings read alike, the source gives them in different places.

Assays:
[1] = Solubility assay (kinetic solubility); format: physicochemical; set-up: Kinetic Sol.: unit not given here
hTRPV1 [2] = target: T1, hTRPV1 (Homo sapiens (Human), UniProt Q8NER1); test: High content screen (HCS) Fluo-8 No Wash calcium flux assay, capsaicin activation, CHO cells expressing hTRPV1; format: cell-based; settings: CHO cells expressing hTRPV1, fluorescent HCS; read-out: TRPV1 IC50
human Kv7.2/3 channels = human Kv7.2/3 channels (Homo sapiens (Human), UniProt O43525+O43526); test: High content screen (HCS) FLIPR Potassium (thallium flux) assay, CHO/hKv7.2/3 cell line; format: cell-based; settings: head prints IC50; channel activation in CHO/hKv7.2/3, fluorescent HCS; read-out: Kv7.2/7.3 IC50
Description: Cell culture: […] To maintain the stability of human Kv7.2/7.3 expression antibiotic selection was added (Puromycin g/ml). High content screen (HCS) using FLIPR Potassium Assay Kit: FLIPR Potassium Assay Kit ([…] FLIPR Potassium Assay Explorer Kits, Molecular Devices) was used with the CHO/hKv7.2/3 cell line to screen molecules against the hKv7.2/7.3 ion channel target. The assay exploits the permeability of thallium ions (Tl+) through potassium (K^+) channels. In this assay, Tl+ indicator dye is used to produce a bright fluorescent signal upon the binding to Tl+ conducted through the potassium channels. The intensity of the Tl+ signal is proportional to the number of potassium channels in the open state. Therefore, it provides a functional indication of the potassium channel activity. To activate the voltage-gate potassium channels, the cells were stimulated with a mixture of K+ and Tl+ to depolarize the cell membrane. The fluorescence increase in the assay represents the influx of Tl+ into the cell specifically through the potassium channel, providing a functional read-out of hKv7.2/3 activity using a fluorescent plate reader coupled with injectors used to activate the channels. […] Tecan Spark reader plate injectors were primed with Tl+ (1 mM Tl2SO4) or Tl++K+ (1 mM Tl2SO4; 5 mM K2SO4) for channel activation and data correction. […]

hERG [3] = target: T2, hERG (Homo sapiens (Human), UniProt Q12809); test: cell-based
[4] = Metabolic stability in human liver microsomes (HLM Clint); format: in vitro ADME
hERG [5] = target: T2, hERG; test: in vitro; settings: hamster, CHO cells that express human hERG
[6] = system: primary neonatal rat DRG neurons; test: Rat DRG neuron firing, current-induced and capsaicin-induced (current clamp); format: cell-based
Description: rDRGs isolation and primary cell culture: Briefly, rat DRGs from all spinal levels were carefully removed and collected in HBSS on ices, connective tissue of the epineurium surrounding the ganglion was removed and cells were dissociated using Collagenase-II and trypsin dissociation solutions. DRGs were dissociated further, passed through glass Pasteur pipettes to obtain single cells. Then dissociation solution was changed to 5% FBS containing DRG neuronal culture medium and plated onto ECL coated 12 mm cover glass.
Additional rDRGs experiments were performed using Lonza primary neonatal rat (Sprague Dawley neonatal; P2,3) DRG neurons (R-DRG-505, Lonza) plated and cultured according to the manufacturer.
These cryopreserved DRG cells were prepared from freshly isolated and dissociated spinal cord dorsal root ganglia and comprise a normal distribution of neurons and glia (schwann cells).
Electrophysiology: Cells were used for electrophysiological recording in the 48 hours following rDRG isolation. Round small neurons (20-40 m in diameter) were selected for electrophysiology recordings, to select for small nociceptive neurons that propagate pain sensation in vivo and that are expressing both Kv7.2/3 and TRPV1 targets. Membrane excitability was monitored using current clamp. Positive current steps of different amplitude were injected (400 ms) to induce spikes trains before and following compound application.
The inhibitory potency of the newly designed compounds was studied on neuronal excitability in an experimental system of high physiological relevance, primary neonatal rat DRG neurons (Sprague Dawley neonatal; P2,3; R-DRG-505, Lonza). These cryopreserved DRG cells are prepared from freshly isolated and dissociated spinal cord dorsal root ganglia and comprise a normal distribution of neurons and glia (schwann cells).
The inhibitory potency was tested both on current-induced and Capsaicin-induced neuronal activity.

[7] = LogD measurement at pH 7.4; format: physicochemical
hTRPV1 [8] = target: T1, hTRPV1; test: TRPV1 electrophysiology in CHO cells co-expressing hKv7.2/3 and hTRPV1; format: cell-based; settings: also when co-applied with retigabine
Description: To exemplify the functional coupling of Kv7.2/3 and TRPV1, stably expressing Kv7.2/3 cells were transfected with human TRPV1 and their response to current ramp to −40 mV (Kv activation) and capsaicin (TRPV1 activation) was examined electrophysiologically.

hERG [9] = target: T2, hERG; test: hERG FLIPR Potassium assay, CHO/hERG cell line; settings: at the concentration given as hERG IC50 bound
human sensory neurons = test: Spontaneous activity of human sensory neurons differentiated from hNPCs; format: cell-based; settings: 5 μM, reversible
Description: Cell culture and differentiation: Human PSC-derived neural progenitor cells (Stem Cell Catalog No. 70901 and 70902) were cultured and expanded on Matrigel coated 6-wells plates, using neuronal progenitor medium containing: Neurobasal media supplemented by non-essential amino-acids, 1%; Glutamax, 1%; B27, 2%, FGF2, 20 ng/ml). hNPC were then plated onto PDL and Matrigel coated 12 mm coverglass at a density of about 50,000 cells/well of a 6 well, in DMEM/F12; 10% KSR; 1% P/S and A83-01 (2 M) from days 0-5. From days 0-9 the medium contained also CHIR99021 (6 μM). From Day 3-9 the medium included R04929097 (2 μM) and SU5402 (3 μM). From day 9 and onwards, the media change (Neurobasal Media contains: NT-3; BDNF; NGF; GDNF) was performed every other day by replacing only 50% of the media after CO2 equilibrating. […]
Electrophysiology: To characterize the neuronal properties with electrophysiology recordings, round small neurons (20-40 μm in diameter) were selected from day 31 and onwards. Cells were monitored for their polarized negative membrane potential and for their ability to evoke consistent spikes train responses to repeated positive current injections as a mark of achieving electrical maturation before testing the effect of the tested compounds on neuronal excitability. Membrane excitability was monitored using current clamp. […]

[10] = system: NGF-treated rat DRG neurons; test: Neuropathic model in rat DRGs (NGF pretreatment, capsaicin induced tetanic burst); format: cell-based; settings: NGF 100 ng/ml pretreatment, compound at 100 nM
Description: FIG. 8B presents representative data obtained in assays in which neurons were pretreated with NGF 100 ng/ml for 4-5 days. NGF Non-treated rat DRGs were stimulated by repeated capsaicin application with and without 421-6 at 2 μM (top panel) or 100 nM (Middle panel).
DRGs treated with NGF show tetanic action potential burst in response to CAP application, mimicking neuropathic like response. See, Background Art FIG. 8A. NGF enhances TRPV1 function using Calcium-dependent fluorescence, F, relative to maximal fluorescence, Fmax, as a function of time from a single HEK293 cell stably transfected with TrkA and transiently transfected with hTRPV1. Pulses of capsaicin (100 nM, applied as shown at top) elicited submaximal increases in [Ca]i. Exposure to NGF (100 ng/ml, see top) enhanced the capsaicin induced calcium increase. Arrows show responses used for calculation of sensitization ratio.

Kv7.3/5, Kv7.4 = settings: positive control, Kv7.3/5, Kv7.4 assay; read-out: Known IC50; cited from earlier work

T2 sequence (Q12809 whole entry): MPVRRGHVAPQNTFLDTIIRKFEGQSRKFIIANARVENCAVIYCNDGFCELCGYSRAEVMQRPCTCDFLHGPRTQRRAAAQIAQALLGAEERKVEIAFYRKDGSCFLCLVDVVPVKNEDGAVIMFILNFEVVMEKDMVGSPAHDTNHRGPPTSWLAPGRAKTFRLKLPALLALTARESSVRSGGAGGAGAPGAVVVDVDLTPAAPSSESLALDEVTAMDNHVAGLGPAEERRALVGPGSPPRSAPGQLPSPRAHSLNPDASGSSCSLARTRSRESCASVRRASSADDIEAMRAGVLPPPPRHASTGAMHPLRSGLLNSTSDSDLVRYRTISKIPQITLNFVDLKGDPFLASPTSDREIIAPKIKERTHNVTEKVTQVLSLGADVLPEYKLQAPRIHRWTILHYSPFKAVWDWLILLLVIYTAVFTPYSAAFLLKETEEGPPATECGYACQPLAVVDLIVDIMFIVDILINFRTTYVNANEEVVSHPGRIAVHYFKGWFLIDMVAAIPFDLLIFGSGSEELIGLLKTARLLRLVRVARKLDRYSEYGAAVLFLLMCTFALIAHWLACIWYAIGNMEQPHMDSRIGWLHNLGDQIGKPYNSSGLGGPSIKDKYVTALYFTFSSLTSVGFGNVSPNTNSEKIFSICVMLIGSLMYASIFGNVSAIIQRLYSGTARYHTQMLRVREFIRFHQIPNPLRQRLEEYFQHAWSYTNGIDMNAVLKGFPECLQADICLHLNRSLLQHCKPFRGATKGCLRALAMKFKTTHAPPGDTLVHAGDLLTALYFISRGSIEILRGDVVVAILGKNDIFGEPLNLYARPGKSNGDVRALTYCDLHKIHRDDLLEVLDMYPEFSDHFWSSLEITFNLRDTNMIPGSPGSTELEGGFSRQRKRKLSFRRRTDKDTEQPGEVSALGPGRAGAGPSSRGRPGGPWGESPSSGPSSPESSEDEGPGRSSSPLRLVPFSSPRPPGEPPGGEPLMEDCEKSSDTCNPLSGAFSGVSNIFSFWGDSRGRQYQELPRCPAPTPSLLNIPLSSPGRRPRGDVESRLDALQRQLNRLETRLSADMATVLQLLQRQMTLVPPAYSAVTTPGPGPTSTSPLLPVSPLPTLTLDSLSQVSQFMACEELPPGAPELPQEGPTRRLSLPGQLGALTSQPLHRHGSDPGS
T1 sequence (Q8NER1 whole entry): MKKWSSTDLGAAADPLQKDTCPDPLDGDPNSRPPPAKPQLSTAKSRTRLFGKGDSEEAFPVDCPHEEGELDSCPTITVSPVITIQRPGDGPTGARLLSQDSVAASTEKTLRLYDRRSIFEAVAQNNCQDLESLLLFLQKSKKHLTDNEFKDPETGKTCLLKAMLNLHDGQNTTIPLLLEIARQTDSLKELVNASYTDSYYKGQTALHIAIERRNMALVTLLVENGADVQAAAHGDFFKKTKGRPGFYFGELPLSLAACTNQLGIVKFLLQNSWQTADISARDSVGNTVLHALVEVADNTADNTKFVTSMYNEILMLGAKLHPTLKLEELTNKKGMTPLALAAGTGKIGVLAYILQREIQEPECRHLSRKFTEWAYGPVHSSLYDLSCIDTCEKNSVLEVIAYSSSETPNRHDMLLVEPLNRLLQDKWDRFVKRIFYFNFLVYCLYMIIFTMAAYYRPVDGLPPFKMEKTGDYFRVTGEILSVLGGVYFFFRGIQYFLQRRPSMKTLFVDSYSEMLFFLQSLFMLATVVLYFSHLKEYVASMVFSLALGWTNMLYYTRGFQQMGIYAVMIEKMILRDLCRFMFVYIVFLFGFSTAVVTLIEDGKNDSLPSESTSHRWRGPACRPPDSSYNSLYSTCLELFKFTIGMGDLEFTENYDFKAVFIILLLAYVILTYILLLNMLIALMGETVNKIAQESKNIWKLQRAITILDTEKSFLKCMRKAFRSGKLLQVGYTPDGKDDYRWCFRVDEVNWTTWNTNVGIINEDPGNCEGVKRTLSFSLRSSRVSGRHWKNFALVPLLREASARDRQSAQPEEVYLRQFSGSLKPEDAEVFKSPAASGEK

SMILES | HLM Clint [4] [µL/min/mg] | hERG, percent in parentheses beside the IC50 bound (hERG [9]) | Kinetic Sol. [1] | LogD [7] | other results
CC(C)c1cc(Cl)cc(Cl)c1C(O)c1ccc(F)c(CC(=O)NCC2(O)CCC2)c1 (racemic) [Compound 533] |  |  |  |  | solubility kinetic at 10 min ([1]; HHBS buffer with 0.2% DMSO, aqueous with cosolvent or surfactant or cyclodextrin, kinetic from dmso stock, read-out: Kinetic Sol.): 41 µM (≈ 18.6 µg/mL); IC50 (hTRPV1 [2]): 21.2 µM; IC50 (human Kv7.2/3 channels): 1.5 µM; IC50 (hERG [3]): > 50 µM; microsomal CLint [4]: 658 µL/min/mg; inhibition at 1.5 h, 50 µM (hERG [5]): 0%; capsaicin-evoked rat DRGs spiking ([6]; 100 nM): inhibition is gained; current-evoked rat DRGs spiking ([6]; 100 nM): inhibition decreases; LogD ([7]; lipid phase / aqueous phase, read-out: LogD): 4.36
CC(C)(C)c1ccc(/C=C/C(=O)Nc2ccc3c(c2)OCCO3)cc1 [AMG9810, reference compound] |  |  |  |  | TRPV1-inhibition potency gain in cells co-expressing hKv7.2/3 and hTRPV1 (hTRPV1 [8]): failure to gain TRPV1-inhibition potency; reduction of Capsaicin evoked firing ([6]; 50 nM): about 50%
COC[C@@H](CO)NC(=O)Cc1cc(Sc2c(Cl)cc(Cl)cc2C(C)C)ccc1F [Compound 414] | 686 | (0%) |  |  | 
COC[C@@H](CO)NC(=O)Cc1cc(Sc2c(Cl)cc(F)cc2C(C)C)ccc1F [Compound 415] | 839 | (0%) | 26.7 | 4.25 | spontaneous neuronal activity (human sensory neurons): significantly reduced
CC(C)c1cc(Cl)cc(Cl)c1C(=O)c1ccc(F)c(CC(=O)NCC(C)(C)O)c1 [Compound 417-4] | 91.84 | (0%) | 66 | 4.08 | 
CC(C)c1cc(Cl)cc(Cl)c1C(O)c1ccc(F)c(CC(=O)NCC(C)(C)O)c1 (stereo not drawn) [Compound 417] | 89.1 | (0%) |  |  | 
Cc1cn(-c2ccc(F)c(CC(=O)NCC(C)(C)O)c2)c2c(Cl)cc(Cl)cc12 [Compound 421-6] |  | (0%) |  |  | capsaicin induced tetanic action potential burst [10]: alleviates; inhibition of current induced AP activity ([6]; 100 nM): 10.1±3.4%; inhibition of current induced AP responses ([6]; 500 nM): 51.2±8.4%; inhibition of the capsaicin induced AP response ([6]; 500 nM): 86.5±8.4%; inhibition of AP response to Capsaicin activation ([6]; 2 μM): 97.9±2.1%; inhibition of AP response to current activation ([6]; 2 μM): 77.7±5.6%
CC(C)c1cc(Cl)cc(Cl)c1C(=O)c1ccc(F)c(CC(=O)NCC2(O)CCC2)c1 [Compound 569] | 120 |  | 27 | 4.47 | 
CC(C)c1cc(Cl)cc(Cl)c1C(=O)c1ccc(F)c(CC(=O)NCC2(O)CC2)c1 [Compound 573] | 441 |  | 24 | 4.34 | 
O=C(Cc1cncc(-n2cc(Cl)c3cc(Cl)cc(Cl)c32)c1)NCCO [Compound 649] | 27.3 |  | 10 | 4.19 | 
O=C(Cc1cncc(-n2cc(Cl)c3cc(Cl)cc(Cl)c32)c1)N[C@@H]1COC[C@H]1O [Compound 661] | 72 | (0%) | 40 | 3.55 | 
O=C(Cc1cncc(-n2cc(Cl)c3cc(Cl)cc(Cl)c32)c1)N[C@H]1COC[C@@H]1O [Compound 663] | 53.6 |  | 26 | 3.52 | 
CCOC(=O)Nc1ccc(NCc2ccc(F)cc2)cc1N [Retigabine, N-(2-amino-4-(4-fluorobenzylamino)-phenyl)carbamic acid ethyl ester] |  |  |  |  | IC50 (Kv7.3/5, Kv7.4): 1.5 to 5 µM
